In experiment [1] the target is KAT2B (Homo sapiens, UniProt Q92831). Nature of the experiment: KAT2B degradation, Western Blot (Jess), NCI-H1048 cells. Further details: degrader, Western blot (Jess). The settings on record: NCI-H1048 cells, KAT2B, 24 h, Western Blot, vs DMSO; read-out: KAT2B NCI-H1048 DC50. It counts as cell-based. The protocol:
(§1) MOLM-13 cells or NCI-H1048 cells were used for Western Blot analysis of KAT2A degradation. KAT2B degradation can be measured in a similar manner with NCI-H1048 cells.
(§2) H1048 cells were maintained at 37° C. in 5% CO2 and 90% humidity in HITES medium with 5% fetal bovine serum (FBS). HITES medium was […] with the following additions: 0.005 mg/ml Insulin, 0.01 mg/ml Transferrin, 30 nM Sodium selenite, 10 nM Hydrocortisone, 10 nM beta-estradiol, and extra 2 mM L-glutamine (for final concentration of 4.5 mM). Cells were plated in full media at 1 million cells/2 mL in a 6-well tissue culture treated plate with or without compounds for 24 h at 37° C. in 5% CO2.
(§3) MOLM-13 cells or NCI-H1048 cells were washed with PBS, then lysed with RIPA buffer containing 1×protease and phosphatase inhibitors (SantaCruz Biotechnologies Cat #sc-24948A). Protein was isolated by centrifugation at 12,000×g for 10 minutes at 4° C. and supernatant was collected. Protein was quantified via Bradford assay. Samples were diluted to 4 μg lysate in 16 μL RIPA buffer and then 4 μL of Jess Sample Buffer. Samples were heated at 95° C. for 5 minutes. Samples were loaded onto 12-230 kDa Jess™ Separation Module, 8×25 capillary cartridges (SM-W004, Biotechne). Antibodies loaded were: Primary antibody for KAT2A (GCN5L2 (C26A10) Rabbit mAb (3305, CST)) and for KAT2B (PCAF (C14G9)) Rabbit mAb (3378, CST) at 1:1000 and Anti-Rabbit Detection Module for Jess™ (Cat No #DM-001, Biotechne). Signal was detected by chemiluminescence.
(§4) DC50 values were determined from percent reduction of protein as compared to the DMSO control.

The target of experiment [2] is KAT2A (Homo sapiens, UniProt Q92830). In words: KAT2A degradation, Western Blot (Jess), NCI-H1048 cells. It counts as cell-based. Further details: degrader, Western blot (Jess). Particulars: NCI-H1048 cells, KAT2A, 24 h, Western Blot, vs DMSO; read-out: KAT2A NCI-H1048 DC50. The procedure: as §1, §2, §3, §4
Chain of KAT2A (Q92830 whole entry): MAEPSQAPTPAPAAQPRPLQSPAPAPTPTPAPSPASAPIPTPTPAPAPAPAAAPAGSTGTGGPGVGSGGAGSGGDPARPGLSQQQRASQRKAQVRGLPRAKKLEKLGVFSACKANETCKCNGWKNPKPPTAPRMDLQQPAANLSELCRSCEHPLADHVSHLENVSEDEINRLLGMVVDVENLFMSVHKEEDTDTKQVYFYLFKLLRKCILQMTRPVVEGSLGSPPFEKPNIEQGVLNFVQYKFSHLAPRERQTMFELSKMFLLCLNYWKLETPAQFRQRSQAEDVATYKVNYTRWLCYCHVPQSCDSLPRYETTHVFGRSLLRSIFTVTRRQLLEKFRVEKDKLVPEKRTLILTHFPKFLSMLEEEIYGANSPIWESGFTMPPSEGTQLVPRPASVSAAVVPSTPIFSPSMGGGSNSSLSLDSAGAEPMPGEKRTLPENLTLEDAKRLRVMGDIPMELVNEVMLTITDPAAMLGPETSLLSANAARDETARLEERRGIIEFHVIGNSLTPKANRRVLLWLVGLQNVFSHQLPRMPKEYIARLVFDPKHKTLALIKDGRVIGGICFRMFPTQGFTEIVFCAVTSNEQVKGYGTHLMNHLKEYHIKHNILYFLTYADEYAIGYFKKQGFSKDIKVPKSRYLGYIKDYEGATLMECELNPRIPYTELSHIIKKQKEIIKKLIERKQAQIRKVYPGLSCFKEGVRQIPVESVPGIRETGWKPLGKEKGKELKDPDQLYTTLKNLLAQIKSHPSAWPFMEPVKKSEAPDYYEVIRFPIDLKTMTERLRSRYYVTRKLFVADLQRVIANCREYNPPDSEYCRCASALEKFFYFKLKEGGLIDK
On the technique in general: A western blot detects proteins with antibodies after separation by electrophoresis.

Where only a bound is given, the exact number is not on record here.

By DC50 is commonly meant the concentration at which degradation of the target reaches its halfway point.

Chain of KAT2B (Q92831 whole entry): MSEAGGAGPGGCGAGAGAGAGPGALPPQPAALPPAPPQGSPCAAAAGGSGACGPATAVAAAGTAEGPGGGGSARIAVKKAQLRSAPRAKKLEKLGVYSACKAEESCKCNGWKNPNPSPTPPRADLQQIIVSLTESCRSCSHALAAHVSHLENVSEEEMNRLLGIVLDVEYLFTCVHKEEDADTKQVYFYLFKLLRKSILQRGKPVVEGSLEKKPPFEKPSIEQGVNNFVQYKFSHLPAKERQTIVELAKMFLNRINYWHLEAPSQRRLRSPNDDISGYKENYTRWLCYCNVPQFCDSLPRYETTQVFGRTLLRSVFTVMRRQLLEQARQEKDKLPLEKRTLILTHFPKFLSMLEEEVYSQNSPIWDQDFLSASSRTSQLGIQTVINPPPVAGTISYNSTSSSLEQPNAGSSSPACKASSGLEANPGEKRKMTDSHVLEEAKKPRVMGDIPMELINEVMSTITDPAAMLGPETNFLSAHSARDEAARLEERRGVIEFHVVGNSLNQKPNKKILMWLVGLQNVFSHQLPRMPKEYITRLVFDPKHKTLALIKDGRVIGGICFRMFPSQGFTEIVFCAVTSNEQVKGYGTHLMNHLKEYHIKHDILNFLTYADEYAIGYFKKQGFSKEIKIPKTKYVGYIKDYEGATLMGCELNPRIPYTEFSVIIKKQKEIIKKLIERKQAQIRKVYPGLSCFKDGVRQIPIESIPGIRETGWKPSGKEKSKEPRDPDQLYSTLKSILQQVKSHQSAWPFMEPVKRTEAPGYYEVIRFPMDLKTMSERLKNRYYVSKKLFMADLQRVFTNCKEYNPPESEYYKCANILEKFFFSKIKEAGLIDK

Regarding `Cc1cc(N2CCN(C3CN(C(=O)c4ccc([C@H]5C[C@@H](Nc6cnn(C)c(=O)c6Br)CN(C)C5)cc4)C3)CC2)ccc1C1CCC(=O)NC1=O` (stereo partly drawn) [Compound 311], the half-maximal degradation concentration (DC50) in experiment [1] is more than 30 nM; in experiment [2] it was 1 to 30 nM.

With `CN1C[C@H](Nc2cnn(C)c(=O)c2Br)C[C@H](c2ccc(C(=O)N3CCN(c4cccc5c4oc(=O)n5C4CCC(=O)NC4=O)CC3)cc2)C1` (stereo partly drawn) [Compound 201], the DC50 in experiment [1] was 1 to 30 nM; in experiment [2], less than 1 nM.

As to `CN1C[C@H](Nc2cnn(C)c(=O)c2Cl)C[C@H](c2ccc(CN3CCC(c4cccc(C5CCC(=O)NC5=O)c4)C(F)(F)C3)cc2)C1` (stereo partly drawn) [Compound 390], the DC50 in experiment [1] is more than 30 nM; in experiment [2], 1 to 30 nM.

For `CN1C[C@H](Nc2cnn(C)c(=O)c2Cl)C[C@H](c2ccc(CN3C4CC3CN(c3cccc(C5CCC(=O)NC5=O)c3)C4)cc2)C1` (stereo partly drawn) [Compound 369], the DC50 was more than 30 nM in experiment [1] and 1 to 30 nM in experiment [2].

As to `CN1C[C@H](Nc2cnn(C)c(=O)c2Br)C[C@H](c2ccc(C(=O)N3CCC(c4ccc5c(C6CCC(=O)NC6=O)cncc5c4)CC3)cc2)C1` (stereo partly drawn) [Compound 330], the DC50 is more than 30 nM in experiment [1] and less than 1 nM in experiment [2].

For the compound `CN1C[C@H](Nc2cnn(C)c(=O)c2Cl)C[C@H](c2ccc(C(=O)N3CCC4(CC3)CCN(c3ccc(N5CCC(=O)NC5=O)c(F)c3)CC4)cc2)C1` [Compound 398], the DC50 in experiment [1] and in experiment [2] was less than 1 nM in each case.

In the case of `Cc1cc(N2CCC3(CCN(Cc4ccc([C@H]5C[C@@H](Nc6cnn(C)c(=O)c6C)CN(C)C5)cc4)CC3)CC2)ccc1C1CCC(=O)NC1=O` (stereo partly drawn) [Compound 339], the DC50 in experiment [1] and in experiment [2] was less than 1 nM throughout.

Take `COc1cc(N2CCC3(CCN(C(=O)c4ccc([C@H]5C[C@@H](Nc6cnn(C)c(=O)c6Cl)CN(C)C5)cc4)CC3)CC2)cc(C)c1C1CCC(=O)NC1=O` (stereo partly drawn) [Compound 286]: the DC50 was 1 to 30 nM in experiment [1] and less than 1 nM in experiment [2].

`CN1C[C@H](Nc2cnn(C)c(=O)c2Cl)C[C@H](c2ccc(C(=O)N3CCC4(CC3)CCN(c3ccc5c(c3)oc(=O)n5C3CCC(=O)NC3=O)CC4)cc2)C1` (stereo partly drawn) [Compound 209]: the DC50 in experiment [1] and in experiment [2] was less than 1 nM in each case.

Consider `Cc1cc(N2CCC3(CCN(C(=O)c4ccc([C@H]5C[C@@H](Nc6cnn(C)c(=O)c6C)CN(C)C5)cc4)CC3)CC2)cnc1C1CCC(=O)NC1=O` (stereo partly drawn) [Compound 245], for which the DC50 in experiment [1] was 1 to 30 nM; in experiment [2], less than 1 nM.

Consider `Cc1ncsc1-c1ccc(CNC(=O)[C@@H]2C[C@@H](O)CN2C(=O)[C@@H](NC(=O)COCCOCCNC(=O)c2ccc(C3CC(Nc4cnn(C)c(=O)c4Br)CN(C)C3)cc2)C(C)(C)C)cc1` (stereo partly drawn) [Compound 423], for which the DC50 in experiment [1] and in experiment [2] was more than 30 nM throughout.

Consider `CN1C[C@H](Nc2cnn(C)c(=O)c2Cl)C[C@H](c2ccc(C(=O)N3CCC(Oc4ccc(C5CCC(=O)NC5=O)c(F)c4)CC3)cc2)C1` (stereo partly drawn) [Compound 203], for which the DC50 is 1 to 30 nM in experiment [1] and less than 1 nM in experiment [2].

`CN1C[C@H](Nc2cnn(C)c(=O)c2Br)C[C@H](c2ccc(C(=O)N3CCN(Cc4cnn(C5CCC(=O)NC5=O)c4)CC3)cc2)C1` (stereo partly drawn) [Compound 205]: the DC50 in experiment [1] and in experiment [2] was more than 30 nM each time.

Turning to `CN1C[C@H](Nc2cnn(C)c(=O)c2Cl)C[C@H](c2ccc(C(=O)N3CC(C#Cc4ccc(C5CCC(=O)NC5=O)cc4)C3)cc2)C1` (stereo partly drawn) [Compound 336], the half-maximal degradation concentration (DC50) was more than 30 nM in experiment [1] and less than 1 nM in experiment [2].

`CN1C[C@H](Nc2nc3cc[nH]c3c(=O)n2C)C[C@H](c2ccc(C(=O)N3CCC4(CC3)CCN(c3ccc(C5CCC(=O)NC5=O)cc3)CC4)cc2)C1` (stereo partly drawn) [Compound 427, 3-(4-(9-(4-((3R,5R)-1-methyl-5-((3-methyl-4-oxo-4,5-dihydro-3H-pyrrolo[3,2-d]pyrimidin-2-yl)amino)piperidin-3-yl)benzoyl)-3,9-diazaspiro[5.5]undecan-3-yl)phenyl)piperidine-2,6-dione]: the DC50 in experiment [1] and in experiment [2] was less than 1 nM throughout.

Consider `CN1C[C@H](Nc2cnn(C)c(=O)c2Br)C[C@H](c2ccc(C(=O)N3CCC4(CC3)CCN(c3ccc5c(C6CCC(=O)NC6=O)nn(C)c5c3)CC4)cc2)C1` (stereo partly drawn) [Compound 211], for which the DC50 in experiment [1] and in experiment [2] was less than 1 nM throughout.

Consider `CN1C[C@H](Nc2cnn(C)c(=O)c2Cl)C[C@H](c2ccc(C(=O)N3CCC4(CC3)CN(c3ccc(C5CCC(=O)NC5=O)c(F)c3)C4)cc2)C1` (stereo partly drawn) [Compound 289], for which the figures for the 50% degradation concentration (DC50) in experiment [1] and in experiment [2] were more than 30 nM and less than 1 nM, respectively.

`Cc1c(N[C@@H]2C[C@H](c3ccc(C(=O)N4CCC5(CCC(c6ccc(C7CCC(=O)NC7=O)cc6)CC5)CC4)cc3)CN(C)C2)ccn(C)c1=O` (stereo partly drawn) [Compound 315]: the DC50 in experiment [1] was 1 to 30 nM; in experiment [2], less than 1 nM.

For `CN1C[C@H](Nc2cnn(C)c(=O)c2Cl)C[C@H](c2ccc(C(=O)N3CCC(c4ccc5c(C6CCC(=O)NC6=O)nccc5c4)CC3)cc2)C1` (stereo partly drawn) [Compound 379], the DC50 in experiment [1] was more than 30 nM; in experiment [2], less than 1 nM.

In the case of `Cc1c(C2CCC(=O)NC2=O)ccc(N2CCC3(CCN(C(=O)c4ccc([C@H]5C[C@@H](Nc6cnn(C)c(=O)c6Br)CN(C)C5)cc4)CC3)CC2)c1F` (stereo partly drawn) [Compound 254], the half-maximal degradation concentration (DC50) in experiment [1] is 1 to 30 nM; in experiment [2] it was less than 1 nM.

With `CN1C[C@H](Nc2cnn(C)c(=O)c2Cl)C[C@H](c2ccc(C(=O)N3CCC4(CC3)CCN(c3cc(C5CCC(=O)NC5=O)ccn3)CC4)cc2)C1` (stereo partly drawn) [Compound 234], the DC50 in experiment [1] and in experiment [2] was less than 1 nM each time.

With `CN1C[C@H](Nc2cnn(C)c(=O)c2Br)C[C@H](c2ccc(CN3CCN(c4ccc5cc(C6CCC(=O)NC6=O)cnc5c4)CC3)cc2)C1` (stereo partly drawn) [Compound 299], the 50% degradation concentration (DC50) in experiment [1] is 1 to 30 nM; in experiment [2], less than 1 nM.

`CN1C[C@H](Nc2cnn(C)c(=O)c2Cl)C[C@H](c2ccc(C(=O)N3CCC4(CCN(Cc5ccc(C6CCC(=O)NC6=O)c(F)c5)CC4)CC3)cc2)C1` (stereo partly drawn) [Compound 215]: the DC50 in experiment [1] and in experiment [2] was less than 1 nM in each case.

As to `Cc1c(N[C@@H]2C[C@H](c3ccc(COc4ccc5c(c4)C(=O)N(C4CCC(=O)NC4=O)C5=O)cc3)CN(C)C2)cnn(C)c1=O` (stereo partly drawn) [Compound 192], the DC50 in experiment [1] was more than 30 nM; in experiment [2], less than 1 nM.

Turning to `COc1cc(N2CCC3(CCN(C(=O)c4ccc([C@H]5C[C@@H](Nc6cnn(C)c(=O)c6Br)CN(C)C5)cc4)CC3)CC2)ccc1C1CCC(=O)NC1=O` (stereo partly drawn) [Compound 318], the DC50 was 1 to 30 nM in experiment [1] and less than 1 nM in experiment [2].

In the case of `Cc1c(N[C@@H]2C[C@H](c3ccc(CN4CCN(c5cc(C6CCC(=O)NC6=O)c(F)cc5F)CC4)cc3)CN(C)C2)cnn(C)c1=O` (stereo partly drawn) [Compound 360], the half-maximal degradation concentration (DC50) in experiment [1] and in experiment [2] was more than 30 nM throughout.

On to `CN1C[C@H](Nc2cnn(C)c(=O)c2Cl)C[C@H](c2ccc(C(=O)N3CCC4(CC3)CCN(c3ncc(C5CCC(=O)NC5=O)cn3)CC4)cc2)C1` (stereo partly drawn) [Compound 264], for which the DC50 in experiment [1] and in experiment [2] was less than 1 nM in each case.

As to `COc1cc(N2CCC3(CCN(C(=O)c4ccc([C@H]5C[C@@H](Nc6cnn(C)c(=O)c6Br)CN(C)C5)cc4)CC3)CC2)c(C)cc1C1CCC(=O)NC1=O` (stereo partly drawn) [Compound 284], the DC50 in experiment [1] is more than 30 nM; in experiment [2] it was less than 1 nM.

In the case of `CN1C[C@H](Nc2cnn(C)c(=O)c2Br)C[C@H](c2ccc(COc3ccc4c(=O)n(C5CCC(=O)NC5=O)ccc4c3)cc2)C1` (stereo partly drawn) [Compound 433, 3-(6-((4-((3R,5R)-5-((5-bromo-1-methyl-6-oxo-1,6-dihydropyridazin-4-yl)amino)-1-methylpiperidin-3-yl)benzyl)oxy)-1-oxoisoquinolin-2(1H)-yl)piperidine-2,6-dione], the values for the DC50 in experiment [1] and in experiment [2] were 1 to 30 nM and less than 1 nM, respectively.

For `Cc1c(N[C@@H]2C[C@H](c3ccc(C(=O)N4CCC(c5ccc6c(C7CCC(=O)NC7=O)cncc6c5)CC4)cc3)CN(C)C2)cnn(C)c1=O` (stereo partly drawn) [Compound 378], the DC50 in experiment [1] was more than 30 nM; in experiment [2] it was 1 to 30 nM.

As to `CN1C[C@H](Nc2cnn(C)c(=O)c2Br)C[C@H](c2ccc(CN3CCC(c4ccc5c(C6CCC(=O)NC6=O)cncc5c4)C(F)(F)C3)cc2)C1` (stereo partly drawn) [Compound 388], the DC50 in experiment [1] and in experiment [2] was less than 1 nM each time.

For the compound `Cc1c(N[C@@H]2C[C@H](c3ccc(C(=O)N4CCC(C#Cc5ccc(C6CCC(=O)NC6=O)cc5)CC4)cc3)CN(C)C2)cnn(C)c1=O` (stereo partly drawn) [Compound 333], the results for the DC50 in experiment [1] and in experiment [2] were more than 30 nM and less than 1 nM, respectively.

Consider `Cc1cc(N2CCC3(CCN(C(=O)c4ccc([C@H]5C[C@@H](Nc6cnn(C)c(=O)c6Cl)CN(C)C5)cc4)CC3)CC2)cc(C)c1N1CCC(=O)NC1=O` [Compound 399], for which the DC50 in experiment [1] and in experiment [2] was more than 30 nM throughout.

The record behind these values is US20260306640A1, “TECHNOLOGIES TARGETING CELL STATES” (Auron Therapeutics, Inc., priority 2023, published 2026).
